Data: PubChem BioAssay AID1996
Converted amounts (≈) assume the structure as drawn.

Conditions: buffer; pH 7.4; 200.0 µM

| Structure (SMILES) | solubility kinetic [µg/mL] |
| --- | --- |
| CC(C)Oc1ccc(C(=O)NCCCNC(=O)c2ccccn2)cc1 | 48.6 (≈ 142 µM) |
| OCC1(CCOc2ccccc2)CCN(Cc2ccncc2)CC1 | 39 (≈ 119 µM) |
| Cl.NC(N)=Nc1nc(-c2ccccc2)c2cc(Cl)ccc2n1 | 9.7 |
| O=C1CSC(=S)N1c1cccc(F)c1 | 1 (≈ 4.4 µM) |
| CC(=O)c1cccc(OCC(=O)NC2CCCCCC2)c1 | > 43.4 |
| O=C(CC(=O)NCc1ccc(Cl)cc1)NCc1ccccc1 | 7.1 (≈ 22.4 µM) |
| N#Cc1ccc(C(=O)CSc2n[nH]c(=O)n2-c2cccnc2)cc1 | > 50.6 |
| O=C(c1cc2cccc([N+](=O)[O-])c2oc1=O)N1CCOCC1 | 40.6 (≈ 133 µM) |
| CCOC(=O)C1CCN(Cc2ccc(Cl)nc2)CC1 | > 42.4 |
| c1cc2c3c(cccc3c1)C(N1CCOCC1)=N2 | 34.8 (≈ 146 µM) |
| Cc1cccc(-n2c(/C=C/c3ccccn3)nc3ccccc3c2=O)c1 | 0.5 (≈ 1.47 µM) |
| O=C(CC1NCCN(Cc2ccccc2)C1=O)Nc1ccccc1 (stereo not given) | 41.5 (≈ 128 µM) |
| O=C1c2cccc3c(O)ccc(c23)C(=O)N1c1ccc(Cl)cc1 | 16.2 (≈ 50 µM) |
| O=C(OCc1nc2ccsc2c(=O)[nH]1)c1ccccc1 | > 42.9 |
| Cc1cc(OCC(=O)OCC(=O)NCc2cccs2)ccc1Cl | 14 (≈ 39.6 µM) |
| COc1ccccc1C(=O)NC1CC(C)(C)NC(C)(C)C1 | > 43.6 |
| CCS(=O)(=O)c1c(S(=O)(=O)CC)c2ccccn2c1C(N)=O | > 51.7 |
| COc1cc(/C=C/C(=O)OCC(=O)NCCCc2ccccc2)ccc1O | 52.9 (≈ 143 µM) |
| Cc1ccccc1NC(=O)CN1CCN(Cc2ccccc2)CC1 | 44.3 (≈ 137 µM) |
| COc1cccc(CNC(=O)COC(=O)C23CC4CC(CC(Cl)(C4)C2)C3)c1 | 21.1 (≈ 53.8 µM) |
| COC(=O)CCC(=O)Nc1ccc2oc3c(c2c1)CCCC3 | 43.5 (≈ 144 µM) |
| O=C(COC(=O)C12CC3CC(CC(C3)C1)C2)NCc1ccccc1 | 10.2 (≈ 31.2 µM) |

| Structure (SMILES) | solubility kinetic [µg/mL] |
| --- | --- |
| Clc1ccc(CN2CCSCC2)cc1Cl | 2.6 (≈ 9.92 µM) |
| O=C(O)COCC(=O)N1CCCN(c2nc3ccc(Cl)cc3s2)CC1 | > 57.6 |
| CCOP(=O)(CN(CC)C(=O)c1ccccc1Br)OCC | > 56.7 |
| O=C(/C=C/c1ccco1)N(Cc1ccc(F)cc1)C1CCS(=O)(=O)C1 (stereo not given) | > 54.5 |
| Cc1sc2ncnc(N3CCN(S(=O)(=O)c4ccc(C(C)(C)C)cc4)CC3)c2c1C | 2.8 (≈ 6.3 µM) |
| COc1ccc(Oc2nc3c(c(=O)n(C)c(=O)n3C)n2C)cc1 | > 47.4 |
| COc1ccc(CC(=O)NC(CC(=O)O)c2cccc([N+](=O)[O-])c2)cc1 (stereo not given) | > 53.8 |
| CCOC(=O)C1=C(C)N(C)C(=S)N(C)C1c1ccc(OC)cc1 (stereo not given) | 19.8 (≈ 59.2 µM) |
| Cc1cc(=O)[nH]c(SCc2ccc(Cl)cc2Cl)n1 | 1.2 (≈ 3.98 µM) |
| Cc1ccc(S(=O)(=O)NCc2cccnc2)cc1C | > 41.5 |
| CC(OC(=O)CCCC(=O)Nc1ccccc1)C(=O)c1ccccc1 (stereo not given) | 45.6 (≈ 134 µM) |
| O=C1CNC(=S)N1CCc1ccc(O)c(O)c1 | 32.3 (≈ 128 µM) |
| O=C(c1ccc([N+](=O)[O-])s1)N1CCc2ccccc21 | < 0.3 |
| CCCCn1c(N)c(NCc2ccccc2)c(=O)[nH]c1=O | 39.1 (≈ 136 µM) |
| NS(=O)(=O)c1cnccc1NCCc1ccccc1 | 40.3 (≈ 145 µM) |
| CCCCNC(=O)CCC(=O)N1CCN(C(c2ccccc2)c2ccccc2)CC1.Cl | > 66.6 |
| O=C(c1cc2c(ccc3ccccc32)o1)N1CCCCC1 | 2.6 (≈ 9.31 µM) |
| CCOc1nc(Nc2ccc(OC)cc2)nc(N2CCOCC2)n1 | 4.8 (≈ 14.5 µM) |
| N#CC(C#N)=Cc1ccc(N2CCOCC2)cc1 | 4.4 (≈ 18.4 µM) |
| CCCNC(=O)Cc1c(C)oc2ccccc12 | > 34.7 |
| CC(=O)c1ccc(S(=O)(=O)N2CCN(C(C)=O)CC2)cc1 | > 46.6 |

Second part, the compound after the results:

| solubility kinetic [µg/mL] | Structure (SMILES) |
| --- | --- |
| 45.7 (≈ 143 µM) | Cc1ccsc1/C=C(\C#N)C(=O)NCCCN1CCOCC1 |
| 9.2 (≈ 33.3 µM) | Cc1ccccc1CNC(=O)c1ccc2ccccc2n1 |
| > 45.2 | CCN1CCN(CC(=O)c2cc(Cl)ccc2Cl)CC1 |
| 3.3 (≈ 9.72 µM) | COc1cc2ncnc(NCc3ccc4c(c3)OCO4)c2cc1OC |
| 0.4 (≈ 1.25 µM) | O=[N+]([O-])c1ccc(N2CCN(c3cccc(Cl)c3)CC2)nc1 |
| > 42.9 | Cc1cccc(Nc2ccc(C(=O)O)cc2[N+](=O)[O-])c1C |
| > 43.4 | COc1ccccc1CNC(=O)COC(=O)c1ccco1 |
| > 41.7 | Cl.OCCCNCc1ccc(-c2ccccc2)cc1 |
| > 43.2 | Cn1nccc1C(=O)N1CCN(c2ccccc2F)CC1 |
| < 0.3 | COC(=O)c1ccccc1CSc1nsc(C)c1C#N |
| < 0.4 | COc1ccc(N=C2NC(=O)/C(=C/C=C/c3ccccc3)S2)cc1 |
| > 39 | Cc1ccccc1NC(=O)c1c([N+](=O)[O-])cnn1C |
| > 69.4 | Cc1ccc(NS(=O)(=O)c2ccc(C)c(NC(=S)NCCN3CCOCC3)c2)c(C)c1 |
| 1.6 (≈ 5.67 µM) | Cc1ccnc(NC(=O)COc2ccc3c(c2)CCC3)c1 |
| 6.1 (≈ 19.3 µM) | CCc1ccc(NC(=S)N2CCCC(C(F)(F)F)C2)cc1 (stereo not given) |
| > 49.1 | CNc1nc2c(c(=O)n(C)c(=O)n2C)n1CCCc1ccccc1 |
| > 46 | CN(Cc1ccc(F)cc1)C(=O)CNC(=O)C1CCCCC1 |
| < 0.3 | CC(=Nc1ccccc1C(F)(F)F)c1ccncc1 |
| 11.2 (≈ 32.1 µM) | CC(c1ccccc1)n1c(Br)nc2c1c(=O)[nH]c(=O)n2C (stereo not given) |
| > 42.1 | CC1CCN(C(=S)NC(=O)c2ccc(F)cc2)CC1 |
| > 36.6 | CC(C)CNC1CS(=O)(=O)CC1O.Cl (stereo not given) |

| solubility kinetic [µg/mL] | Structure (SMILES) |
| --- | --- |
| > 47.5 | OCCNCC(O)CN1c2ccccc2Sc2ccccc21 (stereo not given) |
| > 41.9 | CC(=O)N(c1ccc(C)cc1)c1nc(C)cc(C)c1C#N |
| > 56.7 | Nc1c(Br)cc(Br)cc1CNC1CCC(O)CC1 (stereo not given) |
| > 61.7 | COCC(C)n1c(C)cc(C(=O)COC(=O)c2nn(C)c(=O)c3ccccc23)c1C (stereo not given) |
| 3.3 (≈ 6.84 µM) | CCN(C(=O)COC(=O)c1cc2c(s1)CCCC2)c1c(N)n(Cc2ccccc2)c(=O)[nH]c1=O |
| 3 (≈ 11.3 µM) | COc1ccccc1NC(=S)N1CC(C)(C)C1=O |
| 1 (≈ 3.12 µM) | O=C(Nc1ccc(F)c(Cl)c1)Nc1csc2ccccc12 |
| > 38.3 | Cc1cccc(OCC(=O)NCc2ccccc2)c1 |
| 2.7 (≈ 9.05 µM) | CC(C)c1ccccc1NC(=O)Nc1ccc2c(c1)OCO2 |
| 5.3 (≈ 15.9 µM) | Cc1ncc([N+](=O)[O-])n1CCOC(=O)C12CC3CC(CC(C3)C1)C2 |
| < 0.4 | NS(=O)(=O)c1ccc(NC(=O)c2ccc3c(c2)CCCC3)cc1 |
| 47.4 (≈ 144 µM) | O=C1CN(C(=O)CNC(=O)c2ccc(Cl)cc2Cl)CCN1 |
| > 47.2 | CCOC(=O)c1c(S(=O)(=O)N2CCCC2)c(C)n(C)c1C |
| 5.2 (≈ 17.9 µM) | O=C(Nc1nccs1)c1cc(Cl)nc2ccccc12 |
| 2.4 (≈ 8.5 µM) | O=C(Nc1nc(-c2ccccc2)ns1)c1ccncc1 |
| > 39.7 | Cc1cc(=O)c(C(=O)O)nn1-c1ccc(Cl)cc1 |
| > 37.7 | N/C(CSc1ncccc1C(F)(F)F)=N\O |
| > 38 | O=C(O)CCC(=O)NCC(=O)c1ccc(F)cc1 |
| > 42.6 | Cc1nc(C)n(CC(=O)c2ccc(Cl)cc2Cl)n1 |
| 1.8 (≈ 6.22 µM) | Cc1cccc(NC(=O)COC(=O)c2cccs2)c1C |
| 38.1 (≈ 111 µM) | Cc1cccc(NC(=O)c2ccc(N3CCOCC3)c([N+](=O)[O-])c2)n1 |
